Test results as given in publication PMC12346692, “SUL-150 Limits Vascular Remodeling and Ventricular Failure in Pulmonary Arterial Hypertension” (International Journal of Molecular Sciences, 2025).
“And” between values parts separate entries of the source, which are not always exact repeats. Equal entries are not always repeated. Where two headings read alike, the source gives them in different places. Marks after values point to notes of the source that are not given here.

Columns and labels:
[1] = SUL-150 levels in plasma, lung and right ventricle (LC-MS/MS); format: in vivo, rat; conditions: for concentration at 4 weeks / concentration at 28 days: rat
Description: The administration of vehicle and SUL-150 started 7 days post-monocrotaline injection and was performed by the i.p. implantation of osmotic minipumps (Alzet model #2004, Durect Corp., Cupertino, CA, USA) at the time of aortocaval shunt placement. The Lynch coil method was used to circumvent compatibility issues with the osmotic minipump reservoir as described previously. Vehicle (dimethyl sulfoxide (DMSO) or SUL-150 ((R)-(6-hydroxy-2,5,7,8-tetramethylchroman-2-yl)(piperazin-1-yl)methanone, 0.9 M in DMSO, Sulfateq BV, Groningen, The Netherlands) was administered at a flow rate of 0.25 µL·h^−1, accumulating to an approximate dose of 6 mg·kg^−1·day^−1 SUL-150 in a 300 g rat. Animals were weighed, watched for dyspnea, cyanosis, and oedema, and sacrificed preterm when a 15% weight loss or debilitating dyspnea occurred.
Measurement of SUL-150 levels in plasma and tissue homogenates was performed by liquid chromatography and mass spectrometry. Plasma or tissue homogenates were supplemented with acetonitrile and sonicated, followed by centrifugation at 14,000× g to liberate SUL-150 from the samples and pellet protein precipitates. Tissue samples were subjected to additional solid-phase extraction using an SPEStrata C-18 cartridge (100 mg, 55 µm, 70 Å, Phenomenex, Torrance, CA, USA), prepared with 1 mL methanol followed by 1 mL water. Analytes were washed by methanol (10%) and eluted in acetonitrile/methanol (3:7 v/v). Eluate was concentrated, and water (20%) was added. Analyte recovery was >95% for plasma samples and >70% for tissue. Liquid chromatography of the samples was performed on a 1260 Infinity HPLC device (Agilent Tech., Santa Clara, CA, USA) using a ZORBAX Eclipse AAA column (3.0 × 150 mm, particle size 3.5 µm) in a reversed-phase setup and a flow rate of 0.5 mL·min^−1 with gradient elution. Solvents consisted of methanol (6%)/acetonitrile (4%) acetate and methanol (54%)/acetonitrile (36%) in water with 0.1% ammonium for solvents A and B, respectively. MS/MS detection was performed on a QQQ 6460 mass spectrometer (Agilent Tech., Santa Clara, CA, USA). Detection was set for a quantifier ion (205.1, CE 25 V) and qualifier ion (190.1, CE 40 V). Gas temperature for MS was set to 300 °C and gas flow was set to 6 L·min^−1. Quantification of the samples was performed using an external standard for calibration. LOD and LOQ were 5 pg·mL^−1 and 17 pg·mL^−1, respectively.

[2] = test system: PGC1α, mtTFA, PINK1, Parkin; assay: Immunoblotting of right ventricle for mitogenesis and mitophagy markers; format: in vivo, rat; conditions: PAH rats, ~6 mg·kg^−1·day^−1 i.p. minipump, 28 days; result in words
Description: Protein lysates were prepared from the right ventricle using RIPA buffer (ThermoFisher, Waltham, MA, USA) and supplemented with 0.5% proteinase inhibitor cocktail (Sigma-Aldrich, St. Louis, MO, USA) and 0.5% Halt™ phosphatase inhibitor (ThermoFisher, Waltham, MA, USA). […] Twenty micrograms of total protein per sample was loaded on mini-PROTEAN precast gradient gels (4–15% denaturing SDS–polyacrylamide gel; Bio-Rad, Hercules, CA, USA), separated by gel electrophoresis, and blotted onto nitrocellulose membrane using the Trans-Blot turbo system (Bio-Rad, Hercules, CA, USA) according to standard protocols. Blots were blocked with 5% bovine serum albumin in 20 mM Tris-HCl (pH 7.4) at room temperature for 30 min and incubated at 4 °C overnight with primary antibodies to mtTFA (sc-166965, Santa Cruz Biotechnology, Dallas, TX, USA), PGC1α (NBP1-04676, Bio-Techne, Abingdon, UK), PINK1 (BC100-494, Bio-Techne, Abingdon, UK), Parkin (sc-32282, Santa Cruz Biotechnology, Dallas, TX, USA), or Tubulin (Sigma-Aldrich, St. Louis, MO, USA), all at a dilution of 1:500. Alkaline phosphatase-conjugated secondary antibodies and NBT/BCIP (Bio-Rad, VA, USA) were used for detection. Densitometric analysis was performed using Totallab 120 (Nonlinear Dynamics, Newcastle upon Tyne, UK).

PAH rats = assay: Heart weights and Fulton index at sacrifice; format: in vivo, rat; conditions: ~6 mg·kg^−1·day^−1 i.p. minipump, 28 days
Description: Rats were euthanized under 3–5% isoflurane anesthesia by exsanguination by aorta puncture. Hearts, lungs, and pulmonary arteries were harvested and processed for further analyses. The hearts were weighed and dissected into the left atrium, ventricle, right atrium, and ventricle and septum, which were all individually weighted. The Fulton Index was calculated as: Fulton Index=RV/(LV+IVS) , wherein RV and LV are right and left ventricular weights, respectively, and IVS is the weight of the interventricular septum. The right ventricle was cut in half, and one half was fixed in 3.6% formalin and embedded in paraffin. The other half was snap frozen in liquid nitrogen. The left lung lobe was fixed by filling the airways with 3.6% formalin and embedded in paraffin. The right lung lobe was snap frozen in liquid nitrogen.

[3] = test system: neonatal rat cardiomyocytes; assay: In vitro hypertrophy reporter assay in phenylephrine-treated cardiomyocytes; format: cell-based
Description: Cultures of neonatal rat cardiomyocytes were prepared from 1–3-day-old Wistar rats and adenovirally transformed with hypertrophy reporter construct as described elsewhere. Cardiomyocytes were pre-incubated with SUL-150 (3 × 10^−5 M) or vehicle for 30 min and subsequently stimulated with phenylephrine in the dose range of 10^−8 to 10^−4 M for 24 h. Cells were lysed in passive lysis buffer (Promega, Madison, WI, USA), and […] intensity of the lysate was recorded in an EnVision 2102 plate reader (Perkin Elmer, Waltham, MA, USA).

[4] = test system: right ventricle of PAH rats; assay: Right ventricle mtDNA copy number, radical scavenging, lipid peroxidation and ATP; conditions: ~6 mg·kg^−1·day^−1 i.p. minipump, 28 days
[5] = individual PAH rats at sacrifice, ~6 mg·kg^−1·day^−1 i.p. minipump
[6] = plasma, ip, 6 mg·kg^−1·day^−1, mean of PAH rats at sacrifice, ~6 mg·kg^−1·day^−1 i.p. minipump, read-out: mean concentration of SUL-150 in blood plasma

With Cc1c(C)c2c(c(C)c1O)CC[C@](C)(C(=O)N1CCNCC1)O2 [SUL-150, (R)-(6-hydroxy-2,5,7,8-tetramethylchroman-2-yl)(piperazin-1-yl)methanone] the “SUL-150 concentration, Lung Tissue” value [1, 5] was 35.56 pg/mg and 10.21 pg/mg and 14.26 pg/mg and 25.74 pg/mg and 26.09 pg/mg and 53.94 pg/mg, the “SUL-150 concentration, Plasma” value [1, 5] was 93.16 ng/mL and 3.31 ng/mL and 18.36 ng/mL and 4.42 ng/mL and 18.81 ng/mL and 43.90 ng/mL and the “SUL-150 concentration, Right Ventricle” value [1, 5] was 13.49 pg/mg and 29.91 pg/mg and 23.67 pg/mg and 16.80 pg/mg and 21.76 pg/mg and 143.68 pg/mg. The concentration at 4 weeks ([1]; lung, ip, 6 mg·kg^−1·day^−1, mean of PAH rats at sacrifice, ~6 mg·kg^−1·day^−1 i.p. minipump, read-out: mean concentration of SUL-150 in lung) was 27.6 ± 15.8 ng/g, the concentration at 28 days ([1]; plasma, intraperitoneal, 6 mg·kg^−1·day^−1, range over PAH rats at sacrifice, read-out: plasma level of SUL-150, range) was 3.3 to 93.2 ng/mL and the concentration at 4 weeks [1, 6] was 30.3 ± 34.1 ng/mL. For the same compound, the concentration at 28 days [1, 6] was 30.3 ng/mL, the concentration at 4 weeks ([1]; right ventricle, ip, 6 mg·kg^−1·day^−1, mean of PAH rats at sacrifice, ~6 mg·kg^−1·day^−1 i.p. minipump, read-out: mean concentration of SUL-150 in right ventricle) was 41.5 ± 50.4 ng/g and the “right ventricular protein expression of PGC1α and mtTFA” value [2] was “did not alter”. For the same compound, the “right ventricular protein expression of PINK1 and Parkin” value [2] was “maintained the expression”, the “Heart weight (relative to body weight)” value (PAH rats) was 4.37 ± 0.66 ^a mg·g^−1 and the “IVS weight (relative to body weight)” value (PAH rats) was 0.81 ± 0.22 mg/g. The “LA weight (relative to body weight)” value (PAH rats) was 0.23 ± 0.11 ^a mg·g^−1, the “LV weight (relative to body weight)” value (PAH rats) was 1.60 ± 0.29 ^a mg·g^−1 and the “RA weight (relative to body weight)” value (PAH rats) was 0.38 ± 0.12 ^a mg·g^−1. The “RV weight (relative to body weight)” value (PAH rats) was 1.23 ± 0.31 ^a mg·g^−1, the “Fulton Index” value (PAH rats; RV/(LV+IVS)) was 0.51 ± 0.09 ^a and the “Emax of phenylephrine in hypertrophy reporter with SUL-150 co-treatment” value ([3]; SUL-150 3 × 10^−5 M pre-incubated 30 min, phenylephrine 24 h) was 2.36 RFU. The “reduction in phenylephrine efficacy in hypertrophy reporter” value ([3]; SUL-150 3 × 10^−5 M versus vehicle) was 40%, the “ATP level of the right ventricle” value [4] was 272.2 ± 26.6 pmol/mg and the “endogenous radical scavenging activity in right ventricle” value ([4]; result in words) was “maintained”. The “lipid peroxidation level in right ventricle” value ([4]; result in words) was “decreased lipid peroxidation level to those of sham rats”.
